Experimental data published in patent US8110365B2, “Compositions and methods for detecting and treating renal injury and inflammation” (Rhode Island Hospital, priority 2006, dated 2012).
“Also recorded” adds a separate entry of the source.

What was measured:
endothelial cells = assay: Monocyte adhesion to TNF-α-activated endothelial monolayers; assay type: cell-based, human
NFkB p65 [1] = assay: ChIP of NFkB p65 at MCP-1 and RANTES promoters in HKC cells; assay type: cell-based, human
Text: The in situ interaction between NFκB and its target genes in HKC cells was examined by ChIP assay (35) using a commercially available kit (Upstate Biotechnology, Charlottesville, Va.) according to manufacturer's instructions. Briefly, HKC cells were fixed and crosslinked with 4% formaldehyde. After collection of cell pellets and sonication, aliquots of the samples were set aside as input fraction and the rest subjected to immunoprecipitation using an anti-NFκB p65 antibody or preimmune IgG and Protein A agarose used to pull down the immune complexes. After elution, precipitated chromatin as well as the input fraction was heated at 65° C. to reverse crosslinks and the DNA extracted with Qiagen PCR purification kit (Qiagen, Valencia, Calif.). DNA sequences spanning the κB responsive elements in the promoter region were amplified by PCR using specific primers (MCP-1, forward 5′-[…]-3′ (SEQ ID NO: 1), reverse 5′-[…]-3′(SEQ ID NO: 2), Genbank accession number Y18933; RANTES, forward 5′-[…]-3′ (SEQ ID NO: 3), reverse 5′-[…]-3′ (SEQ ID NO: 4), Genbank accession number S64885) for a number of cycles in the exponential phase as estimated in pilot experiments. DNA samples extracted from input fractions were amplified in parallel for normalization. PCR products resolved in ˜1.5 to 2% agarose gels were photographed under ultraviolet light.

NF-kB and IkB = NF-kB and IkB phosphorylation and IkB degradation in endothelial cells; assay type: cell-based
Experimental: In certain embodiments, NF-kB p65 phosphorylation is assessed as follows. Cell lysates with equal amounts of total protein are immunoblotted for phosphorylated NF-kB p65 or total p65. Anti-phosphorylated NF-kB p65 antibody is commercially available, e.g., from Cell Signaling, MA. Densitometric results of phosphorylated NF-kB p65 and total p65 bands as well as the ratio of pp65/p65 are compared between different transfections at different time points.
In certain embodiments, IkB phosphorylation and degradation is evaluated as follows. Cell lysates with equal amounts of total protein are immunoblotted for phosphorylated IkBa (anti-phosphorylated IkBa antibody is available from Cell Signaling. MA) or total IkBa. Densitometric results of phosphorylated IkBa and total IkBa bands are compared across the different treatments and time points.

endothelial E-selectin = assay: Acute inflammation induced by bolus injection of TNF-α in vivo; details: infusion of exogenous HGF
NF-κB [2] = assay: NF-κB luciferase reporter gene assay in endothelial cells; assay type: cell-based, human; details: 24 h
Experimental: (§1) To explore the role of GSK3b in HGF suppression of inflammation, we examined the effect of HGF on NF-κB activation in endothelial cells (FIG. 8A˜C) and TEC (FIG. 8D). […] (FIG. 8A). To determine whether HGF modulation of NF-κB transcriptional activity alters target gene (E-selectin) levels, DNA affinity precipitation assay was carried out at 4 h after treatment. Proteins in cell lysates were pulled down by biotin labeled oligonucleotides with the sequence of the E-selectin promoter region spanning the κB elements. […] To further examine the effect of HGF on NF-κB binding to the E-selectin gene in vivo, chromatin immunoprecipitation (ChIP) was applied at 4 h after treatments (FIG. 8C).

[3] = system: NF-κB p65 binding to E-selectin promoter; assay: DNA affinity precipitation and ChIP of NF-κB p65 at the E-selectin promoter in HUVEC; assay type: cell-based, human; details: 4 h after treatment
Experimental: as §1

PI3K-Akt = PI3K-Akt activation in HKC / TEC; assay type: cell-based, human
E-selectin = assay: TNF-α induced E-selectin expression in HUVEC; assay type: cell-based, human
GSK3b [4] = biological target: T1, GSK3b (Homo sapiens, UniProt P49841); assay: Inhibitory phosphorylation of GSK3b in HKC cells (immunoblot); assay type: cell-based; design: endogenous in cells; host or cells: HKC-8
Experimental: (§2) Human proximal TEC (HKC-8) (courtesy of Dr. L. Racusen of John Hopkins University, Baltimore, Md.) were maintained in Dulbecco's modified Eagle's medium (DMEM)/F12 supplemented with 5% fetal bovine serum (FBS). Cells were plated at approximately 70% confluence in the media containing 5% FBS for 24 h and then underwent serum starvation for another 24 h. Human recombinant HGF and human recombinant TNF-α (R&D systems, Minneapolis, Minn.) were added to the culture with fresh serum-free medium at a final concentration of 20 ng/ml and 2 ng/ml respectively, or otherwise as indicated. Cell viability was assessed by Trypan blue exclusion. At different time points, cells and conditioned media were harvested for further investigation.
(§3) After different treatments, HKC cells were washed with PBS and lysed with RIPA buffer supplemented with protease inhibitors [1% Nonidet P-40, 0.1% SDS, 100 ug/ml phenylmethysulfonyl fluoride (PMSF), 0.5% sodium deoxycholate, ImM sodium orthovanadate, 2 ug/ml aprotin, 2 ug/ml leupeptin, 5mM EDTA in PBS]. Protein concentration was determined by using a bicinchoninic acid protein assay kit (Sigma). All samples with equal amounts of total protein (50 ug/ml) were fractionated by 7.5˜15% SDS-polyacrylamide gels under reducing condition and analyzed by western immunoblot as described previously (30). The antibodies against p-GSK3b, p-NFkB p65, p-IkBa were purchased from Cell Signaling Technology (Beverly, Mass.) and those for GSK3b, hemagglutin were from Santa Cruz Biotechnology (Santa Cruz, Calif.).

GSK3b [5] = biological target: T1, GSK3b; assay: Inhibitory phosphorylation of GSK3b in HUVEC (immunoblot); assay type: cell-based; design: endogenous in cells; details: LiCl 20 mM, HGF 100 ng/ml
NF-κB [6] = assay: Gel shift assay of HKC nuclear extract with NF-κB consensus sequence; assay type: cell-based, human; details: HKC cells, 4 h
NFkB p65 [7] = assay: TNF-a induced NFkB p65 phosphorylation in HKC cells (immunoblot); assay type: cell-based, human
Experimental: as §2, §3

remnant kidney rats = assay: Rat remnant kidney model (5/6 nephrectomy); assay type: in vivo; details: for inflammation and injury in remnant kidneys: rats, treatment for 2 wk beginning 2 wk after nephrectomy
Text: We examined the molecular mechanism of HGF's anti-inflammatory actions in a model of CKD. Beginning 2 wk after ⅚^th nephrectomy, rats received exogenous HGF, neutralization of endogenous HGF by daily injection of an anti-HGF antibody, or preimmune IgG for 2 wk. […] There were parallel alterations in endothelial activation and inflammation, marked by de novo E-selectin expression and leukocyte adhesion to renal vascular endothelium. […] Thus, the GSK3b inhibitor HGF has direct anti-inflammatory effects via suppression of NF-KB and endothelial inflammation.

T1 sequence (P49841 whole entry): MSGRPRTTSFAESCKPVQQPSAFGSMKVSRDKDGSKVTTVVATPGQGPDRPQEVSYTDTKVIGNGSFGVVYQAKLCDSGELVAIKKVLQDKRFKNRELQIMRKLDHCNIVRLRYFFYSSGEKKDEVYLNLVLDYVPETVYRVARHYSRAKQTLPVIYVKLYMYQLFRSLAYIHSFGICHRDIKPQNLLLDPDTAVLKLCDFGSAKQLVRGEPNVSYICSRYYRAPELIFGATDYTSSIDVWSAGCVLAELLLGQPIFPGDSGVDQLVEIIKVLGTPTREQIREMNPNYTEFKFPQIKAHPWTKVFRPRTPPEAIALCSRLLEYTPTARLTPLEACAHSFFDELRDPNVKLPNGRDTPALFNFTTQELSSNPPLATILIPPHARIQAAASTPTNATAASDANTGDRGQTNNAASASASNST

## HGF: Human recombinant HGF (R&D systems); induces inhibitory phosphorylation of GSK3b
Endothelial cells
  monocytic adhesion to endothelial cells: abrogated monocyte adhesion to TNF-α-activated endothelial monolayers; also recorded: inhibited E-selectin mediated monocytic adhesion to endothelial cells
NFkB p65 [1]
  TNF-a induced recruitment of NFkB p65 to MCP-1 and RANTES promoters: substantially attenuated by concomitant HGF treatment; also recorded: markedly attenuated
NF-kB and IkB
  NF-kB and IkB phosphorylation and IkB degradation: inhibition of NF-kB and IkB phosphorylation and IkB degradation
Endothelial E-selectin
  endothelial expression of E-selectin: reduced endothelial expression of E-selectin induced by bolus injection of TNF-α
  sequestration of circulating macrophages in the kidney: less sequestration of circulating macrophages in the kidney
NF-κB [2]
  TNF-α induced NF-κB reporter gene (transcription) activity: suppressed TNF-a induced NF-kB reporter gene activity; also recorded: significantly reduced TNF-α induced NF-κB transcription activity; also recorded: blunts NF-kB activation
[3]
  TNF-α induced NF-κB binding to E-selectin promoter / gene: counteracted NF-kB interaction with kB elements at the E-selectin gene level; also recorded: significantly blunted TNF-α induced NF-κB binding to E-selectin promoter sequence; also recorded: prevents NF-κB mediated transcription of E-selectin; also recorded: blunts NF-kB activation and its target E-selectin gene
PI3K-Akt
  PI3K-Akt activation: elicited PI3K-Akt activation; also recorded: activates PI3K-Akt in TEC
E-selectin; HUVEC expressing uninhibitable mutant S9A-GSK3b
  HGF inhibition of TNF-a induced E-selectin expression: abolished HGF suppression of E-selectin; also recorded: abolished the suppressive action of HGF; also recorded: abolishes HGF inhibition of endothelial E-selectin
E-selectin; HUVEC transfected with pcDNA3 or HA-WT-GSK3b
  HGF inhibition of TNF-a induced E-selectin expression: HGF inhibition of E-selectin expression was evident
E-selectin; HUVEC, lithium 20 mM, HGF 100 ng/ml, TNF-a 0.5 ng/ml
  TNF-α induced E-selectin expression: suppressed endothelial expression of E-selectin; also recorded: suppressed TNF-α-induced expression of E-selectin; also recorded: attenuates TNF-α elicited E-selectin expression; also recorded: attenuates TNF-a (0.5 ng/ml) elicited E-selectin expression
GSK3b [4]
  inhibitory phosphorylation of GSK3b (S9): inhibited GSK3, by phosphorylation at Ser-9; also recorded: induce GSK3b phosphorylation at Ser9; also recorded: induces inhibitory phosphorylation of GSK3b at S9
GSK3b [5]
  inhibitory phosphorylation of GSK3b at serine 9: inhibited its downstream transducer, GSK-3b, by phosphorylation at serine-9; also recorded: inactivates GSK3b by inhibitory phosphorylation at ser-9; also recorded: induces inhibitory phosphorylation of GSK3b
NF-κB [6]
  TNF-α induced binding of nuclear extract to NF-κB consensus oligonucleotides: markedly blunted by HGF; also recorded: attenuated by HGF
NFkB p65 [7]; HKC cells
  TNF-a induced p65 phosphorylation at other sites (S276, S536): had minimal effect on S276
NFkB p65 [7]; HKC cells expressing GSK3b S9A
  HGF inhibition of TNF-a-induced phosphorylation of p65 at S468: strikingly abolished in cells expressing S9A; also recorded: obliterated in HKC cells expressing GSK3b S9A
NFkB p65 [7]; HKC cells, TNF-a 2 ng/ml, VPA 1 mM, 10 uM for 60 minutes
  TNF-a induced p65 phosphorylation at S468: markedly abolished TNF-a induced phosphorylation of S468 in a time dependent fashion; also recorded: suppresses NFkB phosphorylation specifically at S468
Remnant kidney rats; exogenous HGF
  sequestration of circulating macrophages in the remnant kidney: markedly diminished sequestration of circulating macrophages in the remnant kidney
Remnant kidney rats
  inflammation and injury in remnant kidneys: ameliorated; also recorded: reduces inflammatory infiltration, tubular and glomerular injury
Remnant kidney rats; listed as hepatocyte growth factor
  inflammation and injury in remnant kidneys: profoundly ameliorating gross renal inflammation
Remnant kidney rats; remnant kidney rats
  expression of metalloproteinase-9 (MMP-9): increasing expression of metalloproteinase-9 (MMP-9)
  expression of transforming growth factor-beta (TGF-β): did not reduce expression of transforming growth factor-beta (TGF-β)
  levels of PAI-1 and TIMP-1: decreasing levels of plasminogen activator inhibitor-1 (PAI-1) and tissue inhibitor of metalloproteinase-1 (TIMP-1)
  renal / tubular expression of proinflammatory molecules (MCP-1, RANTES, E-selectin): decreased staining to normal
Remnant kidney rats; remnant kidney rats with established renal injury
  interstitial injury: reduced interstitial injury
Remnant kidney rats; remnant kidney rats, continuous infusion for two weeks
  decrease of interstitial macrophages: more than 50%
Remnant kidney rats; remnant kidney rats, listed as hepatocyte growth factor
  renal / tubular expression of proinflammatory molecules (MCP-1, RANTES, E-selectin): reduced renal expression of proinflammatory molecules such as RANTES, and E-selectin
